From patent US20040191115A1 (priority 2003, published 2004)
Where “and” joins values, the source holds several entries; their conditions need not be identical. Equal entries are not always repeated. Where two headings read alike, the source gives them in different places.

Assays:
[1] = system: bacillus atrophaeus spores; settings: 2.52 percent H2O2, with cartons; for Log Red. (Avg) / average count of colony forming units for the time period / log of average count for the time period: normal speed; for average count of colony forming units for the time period / log of average count for the time period: mean of samples
Method: (§1) Studies were conducted to determine the microbial eradication on mandrels 34 that were subjected to vaporized sterilant introduced at the heaters 40. […] The efficacy of the mandrel sterilization was studied for both the mandrel caps 35 and the mandrel side tubes 37 (see FIG. 3).
(§2) Each of the studies was further carried out using a testing media of bacillus atrophaeus spores for inoculating the mandrels. The mandrels were inoculated by spraying, using an aerating spray bottle having a solution with a concentration of about 7 log bacillus spores. The mandrels were then allowed to air dry. Controls were swabbed using cotton swabs to assure that the mandrels were properly inoculated. Following the machine operating period of the test, the mandrels were swabbed and the bacillus spores transferred to an agar media for incubation of the spores (at 32° C. for 48 hours) and subsequent recovery.
The data was collected by taking swab samples at the mandrel cap (C) and on the mandrel side tubes (T). The mandrel side tube data is the sum of all of the side tubes.

[2] = system: bacillus atrophaeus spores; settings: normal machine operation, cartons running
Method: as §1, §2

[3] = time 30 min, swab site T (mandrel side tubes), normal operating speed
[4] = time 40 min, swab site T (mandrel side tubes), normal operating speed
[5] = 16.76 percent H2O2, time 10 min
[6] = 16.76 percent H2O2, time 15 min
[7] = 16.76 percent H2O2, time 20 min
[8] = 16.76 percent H2O2, time 30 min

Compound: OO [hydrogen peroxide]
- Result #1 CFU/mL [1, 3]: 6.30E+04 CFU/mL and 5.10E+04 CFU/mL
- Result #2 CFU/mL [1, 3]: 6.20E+04 CFU/mL and 7.30E+04 CFU/mL
- Log Red. (Avg) ([1]; time 30 min relative to time zero, cap): 1.06 Log
- Log Red. (Avg) ([1]; time 30 min relative to time zero, side tubes): 0.46 Log
- average count of colony forming units for the time period ([1]; time 40 min, cap): 5.21E+03 CFU/mandrel
- log of average count for the time period ([1]; time 40 min, cap): 3.72 log
- average count of colony forming units for the time period ([1]; time 40 min, side tubes): 1.15E+05 CFU/mandrel
- log of average count for the time period ([1]; time 40 min, side tubes): 5.06 log
- Average CFU/mL [1, 4]: 2.71E+04 CFU/mL and 3.05E+04 CFU/mL
- Average CFU/mandrel [1, 4]: 1.08E+05 CFU/mandrel and 1.22E+05 CFU/mandrel
- Log (of Average CFU/mandrel) [1, 4]: 5.04 Log and 5.09 Log
- Result #1 CFU/mL [1, 4]: 2.50E+04 CFU/mL and 2.89E+04 CFU/mL
- Result #2 CFU/mL [1, 4]: 2.92E+04 CFU/mL and 3.21E+04 CFU/mL
- Log Red. (Avg) ([1]; time 40 min relative to time zero, cap): 1.99 Log
- Log Red. (Avg) ([1]; time 40 min relative to time zero, side tubes): 0.79 Log
- Microbial Load (CFU/mandrel) ([2]; 3.12 percent H2O2, time 0 min): 848000 CFU/mandrel
- Microbial Reduction (Log/mandrel) ([2]; 3.12 percent H2O2, time 0 min): 0.00 Log/mandrel
- Microbial Load (CFU/mandrel) ([2]; 3.12 percent H2O2, time 10 min): 187000 CFU/mandrel
- Microbial Reduction (Log/mandrel) ([2]; 3.12 percent H2O2, time 10 min): 0.66 Log/mandrel
- Microbial Load (CFU/mandrel) ([2]; 3.12 percent H2O2, time 20 min): 33400 CFU/mandrel
- Microbial Reduction (Log/mandrel) ([2]; 3.12 percent H2O2, time 20 min): 1.40 Log/mandrel
- Microbial Load (CFU/mandrel) ([2]; 3.12 percent H2O2, time 30 min): 14100 CFU/mandrel
- Microbial Reduction (Log/mandrel) ([2]; 3.12 percent H2O2, time 30 min): 1.78 Log/mandrel
- Microbial Load (CFU/mandrel) ([2]; 3.12 percent H2O2, time 40 min): 2180 CFU/mandrel
- Microbial Reduction (Log/mandrel) ([2]; 3.12 percent H2O2, time 40 min): 2.59 Log/mandrel
- Microbial Load (CFU/mandrel) ([2]; 5.77 percent H2O2, time 0 min): 566000 CFU/mandrel
- Microbial Reduction (Log/mandrel) ([2]; 5.77 percent H2O2, time 0 min): 0.00 Log/mandrel
- Microbial Load (CFU/mandrel) ([2]; 5.77 percent H2O2, time 10 min): 107000 CFU/mandrel
- Microbial Reduction (Log/mandrel) ([2]; 5.77 percent H2O2, time 10 min): 0.72 Log/mandrel
- Microbial Load (CFU/mandrel) ([2]; 5.77 percent H2O2, time 20 min): 7300 CFU/mandrel
- Microbial Reduction (Log/mandrel) ([2]; 5.77 percent H2O2, time 20 min): 1.89 Log/mandrel
- Microbial Load (CFU/mandrel) ([2]; 5.77 percent H2O2, time 30 min): 42 CFU/mandrel
- Microbial Reduction (Log/mandrel) ([2]; 5.77 percent H2O2, time 30 min): 4.13 Log/mandrel
- Microbial Load (CFU/mandrel) ([2]; 5.77 percent H2O2, time 40 min): 4 CFU/mandrel
- Microbial Reduction (Log/mandrel) ([2]; 5.77 percent H2O2, time 40 min): 5.15 Log/mandrel
- Microbial Load (CFU/mandrel) ([2]; 9.55 percent H2O2, time 0 min): 483000 CFU/mandrel
- Microbial Reduction (Log/mandrel) ([2]; 9.55 percent H2O2, time 0 min): 0.00 Log/mandrel
- Microbial Load (CFU/mandrel) ([2]; 9.55 percent H2O2, time 5 min): 71000 CFU/mandrel
- Microbial Reduction (Log/mandrel) ([2]; 9.55 percent H2O2, time 5 min): 0.83 Log/mandrel
- Microbial Load (CFU/mandrel) ([2]; 9.55 percent H2O2, time 10 min): 5750 CFU/mandrel
- Microbial Reduction (Log/mandrel) ([2]; 9.55 percent H2O2, time 10 min): 1.92 Log/mandrel
- Microbial Load (CFU/mandrel) ([2]; 9.55 percent H2O2, time 20 min): 106 CFU/mandrel
- Microbial Reduction (Log/mandrel) ([2]; 9.55 percent H2O2, time 20 min): 3.66 Log/mandrel
- Microbial Load (CFU/mandrel) ([2]; 9.55 percent H2O2, time 30 min): 8 CFU/mandrel
- Microbial Reduction (Log/mandrel) ([2]; 9.55 percent H2O2, time 30 min): 4.78 Log/mandrel
- Microbial Load (CFU/mandrel) ([2]; 16.76 percent H2O2, time 0 min): 1020667 CFU/mandrel
- Microbial Reduction (Log/mandrel) ([2]; 16.76 percent H2O2, time 0 min): 0.00 Log/mandrel
- Microbial Load (CFU/mandrel) ([2]; 16.76 percent H2O2, time 5 min): 52967 CFU/mandrel
- Microbial Reduction (Log/mandrel) ([2]; 16.76 percent H2O2, time 5 min): 1.22 Log/mandrel
- Microbial Load (CFU/mandrel) [2, 5]: 1273 CFU/mandrel
- Microbial Reduction (Log/mandrel) [2, 5]: 2.81 Log/mandrel
- Microbial Load (CFU/mandrel) [2, 6]: 30 CFU/mandrel
- Microbial Reduction (Log/mandrel) [2, 6]: 4.53 Log/mandrel
- Microbial Load (CFU/mandrel) [2, 7]: 8 CFU/mandrel
- Microbial Reduction (Log/mandrel) [2, 7]: 5.20 Log/mandrel
- Microbial Load (CFU/mandrel) [2, 8]: 4 CFU/mandrel
- Microbial Reduction (Log/mandrel) [2, 8]: 5.21 Log/mandrel
- Microbial Load (CFU/mandrel) ([2]; 35 percent H2O2, time 0 min): 799000 CFU/mandrel
- Microbial Reduction (Log/mandrel) ([2]; 35 percent H2O2, time 0 min): 0.00 Log/mandrel
- Microbial Load (CFU/mandrel) ([2]; 35 percent H2O2, time 5 min): 959 CFU/mandrel
- Microbial Reduction (Log/mandrel) ([2]; 35 percent H2O2, time 5 min): 2.92 Log/mandrel
- Microbial Load (CFU/mandrel) ([2]; 35 percent H2O2, time 10 min): 1 CFU/mandrel
- Microbial Load (CFU/mandrel) ([2]; 35 percent H2O2, time 15 min): 1 CFU/mandrel
- Microbial Reduction (Log/mandrel) ([2]; 35 percent H2O2, time 15 min): 5.90 Log/mandrel
- Microbial Load (CFU/mandrel) ([2]; 35 percent H2O2, time 20 min): 1 CFU/mandrel
- Microbial Reduction (Log/mandrel) ([2]; 35 percent H2O2, time 20 min): 5.90 Log/mandrel
